Assay results from patent publication US20230286970A1, “NOVEL OXADIAZOLE-BASED SELECTIVE HDAC6 INHIBITORS” (ITALFARMACO S.P.A., priority 2020, published 2023).

Key:
[1] = molecular target: recombinant human HDAC6 (Homo sapiens (Human), UniProt Q9UBN7); assay: Enzymatic screening, HDAC6 inhibition (fluorogenic FdL_G substrate); format: biochemical
Outline: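 Enzyme was preincubated with compound (8 doses, triplicate, 1% DMSO) in 25 mM Tris-HCl pH 8, 130 mM NaCl, 0.05% Tween-20, 10% glycerol, with BSA. A FLUOR DE LYS-Green substrate was then added, and fluorescence was read after developer plus 2 μM TSA.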

[2] = molecular target: recombinant human HDAC1 (Homo sapiens (Human), UniProt Q13547); assay: Enzymatic screening, HDAC1 inhibition (fluorogenic FdL_G substrate); format: biochemical
recombinant human HDAC1, sequence (Q13547 whole entry): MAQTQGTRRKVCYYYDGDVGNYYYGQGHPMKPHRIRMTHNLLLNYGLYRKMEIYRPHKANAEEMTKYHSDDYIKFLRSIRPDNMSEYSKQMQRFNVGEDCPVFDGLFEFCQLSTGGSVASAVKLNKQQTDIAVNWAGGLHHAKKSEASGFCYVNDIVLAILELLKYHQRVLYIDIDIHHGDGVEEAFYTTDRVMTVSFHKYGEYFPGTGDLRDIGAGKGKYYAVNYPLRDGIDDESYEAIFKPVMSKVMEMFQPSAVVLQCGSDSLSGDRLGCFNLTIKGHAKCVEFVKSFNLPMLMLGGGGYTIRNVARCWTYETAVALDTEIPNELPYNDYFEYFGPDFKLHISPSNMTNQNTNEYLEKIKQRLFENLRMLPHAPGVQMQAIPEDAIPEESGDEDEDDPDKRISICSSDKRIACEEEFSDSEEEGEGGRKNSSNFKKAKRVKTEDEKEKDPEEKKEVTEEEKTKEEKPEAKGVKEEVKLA
Outline: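 Recombinant human HDAC1 inhibition was measured fluorometrically using the FLUOR DE LYS-Green (FdL_G) substrate. Compounds at 8 doses (1% DMSO final) in Tris-HCl pH 8 buffer with NaCl, Tween-20 and glycerol were preincubated in triplicate with enzyme and 1 mg/mL BSA, then given substrate. Developer I plus 2 μM TSA was added, and fluorescence read after 25 minutes in the dark.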

recombinant human HDAC6, sequence (Q9UBN7 whole entry): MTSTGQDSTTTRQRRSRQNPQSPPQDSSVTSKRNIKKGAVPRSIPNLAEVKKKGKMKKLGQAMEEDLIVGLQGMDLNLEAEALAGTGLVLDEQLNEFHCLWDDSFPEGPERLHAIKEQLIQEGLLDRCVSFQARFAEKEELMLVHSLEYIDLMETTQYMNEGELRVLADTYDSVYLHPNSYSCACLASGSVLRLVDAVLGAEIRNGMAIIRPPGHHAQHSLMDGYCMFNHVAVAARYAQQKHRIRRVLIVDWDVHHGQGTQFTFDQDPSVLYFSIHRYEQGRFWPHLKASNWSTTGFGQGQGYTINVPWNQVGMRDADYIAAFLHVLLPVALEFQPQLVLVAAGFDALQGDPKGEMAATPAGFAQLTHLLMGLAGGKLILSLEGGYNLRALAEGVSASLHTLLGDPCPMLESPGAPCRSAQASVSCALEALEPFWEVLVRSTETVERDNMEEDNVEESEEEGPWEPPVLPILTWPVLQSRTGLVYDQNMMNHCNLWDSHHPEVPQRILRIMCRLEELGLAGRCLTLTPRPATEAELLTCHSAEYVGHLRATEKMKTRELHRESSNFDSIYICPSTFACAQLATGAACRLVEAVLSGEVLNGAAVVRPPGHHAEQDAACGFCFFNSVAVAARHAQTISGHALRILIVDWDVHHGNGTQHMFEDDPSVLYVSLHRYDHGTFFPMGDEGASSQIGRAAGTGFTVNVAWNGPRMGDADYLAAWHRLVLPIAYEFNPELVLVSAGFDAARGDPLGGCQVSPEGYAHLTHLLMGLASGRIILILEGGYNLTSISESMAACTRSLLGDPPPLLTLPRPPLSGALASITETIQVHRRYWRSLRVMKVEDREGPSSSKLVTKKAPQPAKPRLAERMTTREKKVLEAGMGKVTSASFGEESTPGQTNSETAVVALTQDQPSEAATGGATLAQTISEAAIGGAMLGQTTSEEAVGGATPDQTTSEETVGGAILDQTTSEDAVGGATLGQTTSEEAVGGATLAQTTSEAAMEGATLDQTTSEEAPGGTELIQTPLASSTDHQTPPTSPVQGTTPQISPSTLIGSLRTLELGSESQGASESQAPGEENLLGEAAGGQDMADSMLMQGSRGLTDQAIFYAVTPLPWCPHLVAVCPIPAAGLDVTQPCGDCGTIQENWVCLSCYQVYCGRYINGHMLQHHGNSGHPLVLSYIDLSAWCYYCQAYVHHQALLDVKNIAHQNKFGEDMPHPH

| IC50 [1] | IC50 [2] | Structure (SMILES) |
| --- | --- | --- |
| 89 nM | > 200000 nM | Nc1ncnc2sc(-c3cn(Cc4ccc(-c5nnc(C(F)F)o5)cc4)nn3)cc12 [compound 178, 6-(1-(4-(5-(difluoromethyl)-1,3,4-oxadiazol-2-yl)benzyl)-1H-1,2,3-triazol-4-yl)thieno[2,3-d]pyrimidin-4-amine] |
| 90 nM | > 200000 nM | CN(Cc1ccncc1)Cc1ccc(-c2cn(Cc3c(F)cc(-c4nnc(C(F)F)o4)cc3F)nn2)cc1 [compound 179, N-(4-(1-(4-(5-(difluoromethyl)-1,3,4-oxadiazol-2-yl)-2,6-difluorobenzyl)-1H-1,2,3-triazol-4-yl)benzyl)-N-methyl-1-(pyridin-4-yl)methanamine] |
| 92 nM | > 200000 nM | CCNc1cccc(-c2cn(Cc3ccc(-c4nnc(C(F)F)o4)cc3)nn2)c1 [compound 180, 3-(1-(4-(5-(difluoromethyl)-1,3,4-oxadiazol-2-yl)benzyl)-1H-1,2,3-triazol-4-yl)-N-ethylaniline] |
| 92 nM | > 200000 nM | Fc1ccccc1-c1nnn(Cc2ccc(-c3nnc(C(F)F)o3)cc2)n1 [compound 181, 2-(difluoromethyl)-5-(4-((5-(2-fluorophenyl)-2H-tetrazol-2-yl)methyl)phenyl)-1,3,4-oxadiazole] |
| 93 nM | > 200000 nM | CC(=O)N(Cc1ccco1)c1cccc(-c2cn(Cc3c(F)cc(-c4nnc(C(F)F)o4)cc3F)nn2)c1 [compound 183, N-(3-(1-(4-(5-(difluoromethyl)-1,3,4-oxadiazol-2-yl)-2,6-difluorobenzyl)-1H-1,2,3-triazol-4-yl)phenyl)-N-(furan-2-ylmethyl)acetamide] |
| 99 nM | > 200000 nM | FC(F)c1nnc(-c2ccc(Cn3nnc(-c4cccc(-n5cccn5)c4)n3)cc2)o1 [compound 188, 2-(4-((5-(3-(1H-pyrazol-1-yl)phenyl)-2H-tetrazol-2-yl)methyl)phenyl)-5-(difluoromethyl)-1,3,4-oxadiazole] |
| 99 nM | > 200000 nM | CC(c1ccc(-c2nnc(C(F)F)o2)c(F)c1)n1cc(-c2cccc(NC(=O)N3CCOCC3)c2)nn1 (stereo not shown) [compound 189, N-(3-(1-(1-(4-(5-(difluoromethyl)-1,3,4-oxadiazol-2-yl)-3-fluorophenyl)ethyl)-1H-1,2,3-triazol-4-yl)phenyl)morpholine-4-carboxamide] |
| 102 nM | > 200000 nM | NCc1ccc(-c2nc(Cc3ccc(-c4nnc(C(F)F)o4)cc3)no2)cc1 [compound 191, (4-(3-(4-(5-(difluoromethyl)-1,3,4-oxadiazol-2-yl)benzyl)-1,2,4-oxadiazol-5-yl)phenyl)methanamine] |
| 102 nM | > 200000 nM | Nc1cccc(-c2cn(Cc3ccc(-c4nnc(C(F)F)o4)cc3)nn2)c1 [compound 192, 3-(1-(4-(5-(difluoromethyl)-1,3,4-oxadiazol-2-yl)benzyl)-1H-1,2,3-triazol-4-yl)aniline] |
| 104 nM | > 200000 nM | O=C1Nc2cc(-c3nnn(Cc4ccc(-c5nnc(C(F)F)o5)cc4)n3)ccc2NC12CCCC2 [compound 195, 6′-(2-(4-(5-(difluoromethyl)-1,3,4-oxadiazol-2-yl)benzyl)-2H-tetrazol-5-yl)-1′,4′-dihydro-3′H-spiro[cyclopentane-1,2′-quinoxalin]-3′-one] |
| 109 nM | > 200000 nM | Nc1ccc(-c2cn(Cc3ccc(-c4nnc(C(F)F)o4)nn3)nn2)cn1 [compound 198, 5-(1-((6-(5-(difluoromethyl)-1,3,4-oxadiazol-2-yl)pyridazin-3-yl)methyl)-1H-1,2,3-triazol-4-yl)pyridin-2-amine] |
| 109 nM | > 200000 nM | O=C(Nc1cncc(-c2nnn(Cc3ccc(-c4nnc(C(F)F)o4)cc3)n2)c1)N1CCOCC1 [compound 199, N-(5-(2-(4-(5-(difluoromethyl)-1,3,4-oxadiazol-2-yl)benzyl)-2H-tetrazol-5-yl)pyridin-3-yl)morpholine-4-carboxamide] |
| 113 nM | > 200000 nM | Nc1ncc(-c2cccc(-c3nnn(Cc4ccc(-c5nnc(C(F)F)o5)cc4)n3)c2)s1 [compound 200, 5-(3-(2-(4-(5-(difluoromethyl)-1,3,4-oxadiazol-2-yl)benzyl)-2H-tetrazol-5-yl)phenyl)thiazol-2-amine] |
| 115 nM | > 200000 nM | CN(Cc1ccncc1)Cc1ccc(-c2nnn(Cc3c(F)cc(-c4nnc(C(F)F)o4)cc3F)n2)cc1 [compound 201, N-(4-(2-(4-(5-(difluoromethyl)-1,3,4-oxadiazol-2-yl)-2,6-difluorobenzyl)-2H-tetrazol-5-yl)benzyl)-N-methyl-1-(pyridin-4-yl)methanamine] |
| 118 nM | > 200000 nM | O=C1CCc2ccc(-c3nnn(Cc4ccc(-c5nnc(C(F)F)o5)cc4)n3)cc21 [compound 203, 6-(2-(4-(5-(difluoromethyl)-1,3,4-oxadiazol-2-yl)benzyl)-2H-tetrazol-5-yl)-2,3-dihydro-1H-inden-1-one] |
| 127 nM | > 200000 nM | CN(Cc1ccc(-c2nc(Cc3c(F)cc(-c4nnc(C(F)F)o4)cc3F)no2)cc1)C(=O)C(F)F [compound 206, N-(4-(3-(4-(5-(difluoromethyl)-1,3,4-oxadiazol-2-yl)-2,6-difluorobenzyl)-1,2,4-oxadiazol-5-yl)benzyl)-2,2-difluoro-N-methylacetamide] |
| 132 nM | > 200000 nM | O=C1CCc2c1cccc2-c1nnn(Cc2ccc(-c3nnc(C(F)F)o3)cc2)n1 [compound 208, 4-(2-(4-(5-(difluoromethyl)-1,3,4-oxadiazol-2-yl)benzyl)-2H-tetrazol-5-yl)-2,3-dihydro-1H-inden-1-one] |
| 133 nM | > 200000 nM | O=C1Nc2cc(-c3nnn(Cc4ccc(-c5nnc(C(F)F)o5)cc4)n3)ccc2NC12CCCCC2 [compound 209, 6′-(2-(4-(5-(difluoromethyl)-1,3,4-oxadiazol-2-yl)benzyl)-2H-tetrazol-5-yl)-1′,4′-dihydro-3′H-spiro[cyclohexane-1,2′-quinoxalin]-3′-one] |
| 138 nM | > 200000 nM | Cn1c(=O)[nH]c2cc(-c3nnn(Cc4ccc(-c5nnc(C(F)F)o5)cc4)n3)ccc21 [compound 210, 5-(2-(4-(5-(difluoromethyl)-1,3,4-oxadiazol-2-yl)benzyl)-2H-tetrazol-5-yl)-1-methyl-1,3-dihydro-2H-benzo[d]imidazol-2-one] |
| 147 nM | > 200000 nM | CN1CCN(c2ccc(-c3nnn(Cc4ccc(-c5nnc(C(F)F)o5)cc4)n3)cn2)CC1 [compound 212, 2-(difluoromethyl)-5-(4-((5-(6-(4-methylpiperazin-1-yl)pyridin-3-yl)-2H-tetrazol-2-yl)methyl)phenyl)-1,3,4-oxadiazole] |
| 150 nM | > 200000 nM | CN1CCN(c2ccc(-c3nnn(Cc4ccc(-c5nnc(C(F)F)o5)cc4)n3)cc2)CC1 [compound 213, 2-(difluoromethyl)-5-(4-((5-(4-(4-methylpiperazin-1-yl)phenyl)-2H-tetrazol-2-yl)methyl)phenyl)-1,3,4-oxadiazole] |
| 151 nM | > 200000 nM | Fc1cc(-c2nnc(C(F)F)o2)cc(F)c1Cn1cc(-c2ccc(CN3CC(C(F)(F)F)C3)cc2)nn1 [compound 214, 2-(3,5-difluoro-4-((4-(4-((3-(trifluoromethyl)azetidin-1-yl)methyl)phenyl)-1H-1,2,3-triazol-1-yl)methyl)phenyl)-5-(difluoromethyl)-1,3,4-oxadiazole] |
| 151 nM | > 200000 nM | CN(Cc1ccncc1)Cc1ccc(-c2nnn(Cc3ccc(-c4nnc(C(F)F)o4)cc3)n2)cc1 [compound 215, N-(4-(2-(4-(5-(difluoromethyl)-1,3,4-oxadiazol-2-yl)benzyl)-2H-tetrazol-5-yl)benzyl)-N-methyl-1-(pyridin-4-yl)methanamine] |
| 151 nM | > 200000 nM | CC(C)(C)OC(=O)N1CCC2(CC1)C(=O)Nc1ccc(-c3cn(Cc4ccc(-c5nnc(C(F)F)o5)cc4)nn3)cc12 [compound 216, tert-butyl 5-(1-(4-(5-(difluoromethyl)-1,3,4-oxadiazol-2-yl)benzyl)-1H-1,2,3-triazol-4-yl)-2-oxospiro[indoline-3,4′-piperidine]-1′-carboxylate] |
| 156 nM | > 200000 nM | CC(C)(c1ccncc1)c1nnn(Cc2ccc(-c3nnc(C(F)F)o3)cc2)n1 [compound 219, 2-(difluoromethyl)-5-(4-((5-(2-(pyridin-4-yl)propan-2-yl)-2H-tetrazol-2-yl)methyl)phenyl)-1,3,4-oxadiazole] |
| 157 nM | > 200000 nM | FC(F)c1nnc(-c2ccc(Cn3nnc(-c4ccco4)n3)cc2)o1 [compound 220, 2-(difluoromethyl)-5-(4-((5-(furan-2-yl)-2H-tetrazol-2-yl)methyl)phenyl)-1,3,4-oxadiazole] |
| 157 nM | > 200000 nM | Nc1ccc(-c2cn(C(Cc3ccccc3)c3ccc(-c4nnc(C(F)F)o4)cc3)nn2)cn1 (stereo not shown) [compound 221, 5-(1-(1-(4-(5-(difluoromethyl)-1,3,4-oxadiazol-2-yl)phenyl)-2-phenylethyl)-1H-1,2,3-triazol-4-yl)pyridin-2-amine] |
| 160 nM | > 200000 nM | FC(F)c1nnc(-c2ccc(Cn3cc(-c4ccc5cn[nH]c5c4)nn3)cc2)o1 [compound 222, 2-(4-((4-(1H-indazol-6-yl)-1H-1,2,3-triazol-1-yl)methyl)phenyl)-5-(difluoromethyl)-1,3,4-oxadiazole] |

| Structure (SMILES) | IC50 [1] | IC50 [2] |
| --- | --- | --- |
| O=C(Nc1cc(-c2nnn(Cc3c(F)cc(-c4nnc(C(F)F)o4)cc3F)n2)ccc1OC(=O)N1CCOCC1)N1CCOCC1 [compound 196, 4-(2-(4-(5-(difluoromethyl)-1,3,4-oxadiazol-2-yl)-2,6-difluorobenzyl)-2H-tetrazol-5-yl)-2-(morpholine-4-carboxamido)phenyl morpholine-4-carboxylate] | 107 nM | > 200000 nM |
